# Source: PubChem BioAssay (NCI)
#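 Step 1: Grow cells in 96-well plates. Step 2: Expose to compound for 48 hours at 5 concentrations. Step 3: Interpolate endpoints linearly; if unreached, use highest concentration. At the GI50, growth is halved. TGI denotes the concentration required for complete inhibition of growth.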
# Experiments:
# Test in all cases: DTP human tumour cell line panel, 48 h
# NCI-H460 lung = tested on: NCI-H460 lung
# HCT-15 colon = tested on: HCT-15 colon
# NCI/ADR-RES ovarian = tested on: NCI/ADR-RES ovarian
# MCF7 breast = tested on: MCF7 breast
# A498 renal = tested on: A498 renal
# KM12 colon = tested on: KM12 colon
# UACC-257 melanoma = tested on: UACC-257 melanoma
# LOX IMVI melanoma = tested on: LOX IMVI melanoma
# UO-31 renal = tested on: UO-31 renal
# HOP-92 NSCLC = tested on: HOP-92 NSCLC
# M14 melanoma = tested on: M14 melanoma
# NCI-H226 lung = tested on: NCI-H226 lung
# OVCAR-8 ovarian = tested on: OVCAR-8 ovarian
# SW-620 colon = tested on: SW-620 colon
# HT29 colon = tested on: HT29 colon
# SNB-19 CNS = tested on: SNB-19 CNS
# T-47D breast = tested on: T-47D breast
# HCC-2998 colon = tested on: HCC-2998 colon
# SK-MEL-28 melanoma = tested on: SK-MEL-28 melanoma
# SN12C renal = tested on: SN12C renal
# HL-60(TB) leukemia = tested on: HL-60(TB) leukemia
# SF-268 CNS = tested on: SF-268 CNS
# OVCAR-5 ovarian = tested on: OVCAR-5 ovarian
# SK-MEL-5 melanoma = tested on: SK-MEL-5 melanoma
# SK-OV-3 ovarian = tested on: SK-OV-3 ovarian
# U251 CNS = tested on: U251 CNS
# PC-3 prostate = tested on: PC-3 prostate
# OVCAR-3 ovarian = tested on: OVCAR-3 ovarian
# ACHN renal = tested on: ACHN renal
# EKVX NSCLC = tested on: EKVX NSCLC
# IGROV1 ovarian = tested on: IGROV1 ovarian
# RXF 393 renal = tested on: RXF 393 renal
# UACC-62 melanoma = tested on: UACC-62 melanoma
# SF-295 CNS = tested on: SF-295 CNS
# CCRF-CEM leukemia = tested on: CCRF-CEM leukemia
# HOP-62 NSCLC = tested on: HOP-62 NSCLC
# DU-145 prostate = tested on: DU-145 prostate
# CAKI-1 renal = tested on: CAKI-1 renal
# MDA-MB-231 breast = tested on: MDA-MB-231 breast
# RPMI-8226 leukemia = tested on: RPMI-8226 leukemia
# NCI-H522 lung = tested on: NCI-H522 lung
# MDA-MB-435 = tested on: MDA-MB-435
# MOLT-4 leukemia = tested on: MOLT-4 leukemia
# NCI-H23 lung = tested on: NCI-H23 lung
# A549 NSCLC = tested on: A549 NSCLC
# BT-549 breast = tested on: BT-549 breast
# TK-10 renal = tested on: TK-10 renal
# 786-0 renal = tested on: 786-0 renal
# SNB-75 CNS = tested on: SNB-75 CNS
# HCT-116 colon = tested on: HCT-116 colon
# HS 578T breast = tested on: HS 578T breast
# COLO 205 colon = tested on: COLO 205 colon
# SF-539 CNS = tested on: SF-539 CNS
# SK-MEL-2 melanoma = tested on: SK-MEL-2 melanoma
# SR leukemia = tested on: SR leukemia
# K-562 leukemia = tested on: K-562 leukemia
smiles,measurement,setting,value
CC(=O)OC1Oc2ccc(C)cc2-c2oc(=O)c(-c3cc4ccccc4oc3=O)cc21 (configuration not stated),GI50,NCI-H460 lung,2.64 µM
same,TGI,NCI-H460 lung,17.8 µM
same,GI50,HCT-15 colon,1.87 µM
same,TGI,HCT-15 colon,11.6 µM
same,GI50,NCI/ADR-RES ovarian,2.54 µM
same,TGI,NCI/ADR-RES ovarian,18.1 µM
same,GI50,MCF7 breast,1.98 µM
same,TGI,MCF7 breast,7.01 µM
same,GI50,A498 renal,0.612 µM
same,TGI,A498 renal,4.07 µM
same,GI50,KM12 colon,1.43 µM
same,TGI,KM12 colon,5.94 µM
same,GI50,UACC-257 melanoma,8.52 µM
same,TGI,UACC-257 melanoma,27.4 µM
same,GI50,LOX IMVI melanoma,1.2 µM
same,TGI,LOX IMVI melanoma,3.71 µM
same,GI50,UO-31 renal,7.9 µM
same,TGI,UO-31 renal,29.8 µM
same,GI50,HOP-92 NSCLC,1.12 µM
same,TGI,HOP-92 NSCLC,3.61 µM
same,GI50,M14 melanoma,1.2 µM
same,TGI,M14 melanoma,2.78 µM
same,GI50,NCI-H226 lung,4.61 µM
same,TGI,NCI-H226 lung,16.5 µM
same,GI50,OVCAR-8 ovarian,3.8 µM
same,TGI,OVCAR-8 ovarian,8.16 µM
same,GI50,SW-620 colon,6.05 µM
same,TGI,SW-620 colon,29.9 µM
same,GI50,HT29 colon,2.08 µM
same,TGI,HT29 colon,34 µM
same,GI50,SNB-19 CNS,3.82 µM
same,TGI,SNB-19 CNS,25.5 µM
same,GI50,T-47D breast,1.5 µM
same,TGI,T-47D breast,6.08 µM
same,GI50,HCC-2998 colon,2.43 µM
same,TGI,HCC-2998 colon,9.33 µM
same,GI50,SK-MEL-28 melanoma,5.84 µM
same,TGI,SK-MEL-28 melanoma,27.1 µM
same,GI50,SN12C renal,2.77 µM
same,TGI,SN12C renal,9.89 µM
same,GI50,HL-60(TB) leukemia,0.822 µM
same,TGI,HL-60(TB) leukemia,3.08 µM
same,GI50,SF-268 CNS,3.27 µM
same,TGI,SF-268 CNS,12.2 µM
same,GI50,OVCAR-5 ovarian,3.38 µM
same,TGI,OVCAR-5 ovarian,21 µM
same,GI50,SK-MEL-5 melanoma,2.67 µM
same,TGI,SK-MEL-5 melanoma,11.6 µM
same,GI50,SK-OV-3 ovarian,1.8 µM
same,TGI,SK-OV-3 ovarian,8.57 µM
same,GI50,U251 CNS,2.67 µM
same,TGI,U251 CNS,26.8 µM
same,GI50,PC-3 prostate,2.13 µM
same,TGI,PC-3 prostate,8.54 µM
same,GI50,OVCAR-3 ovarian,1.19 µM
same,TGI,OVCAR-3 ovarian,8.15 µM
same,GI50,ACHN renal,3.06 µM
same,TGI,ACHN renal,11.4 µM
same,GI50,EKVX NSCLC,6.02 µM
same,TGI,EKVX NSCLC,23.8 µM
same,GI50,IGROV1 ovarian,4 µM
same,TGI,IGROV1 ovarian,37.7 µM
same,GI50,RXF 393 renal,3.01 µM
same,TGI,RXF 393 renal,14.3 µM
same,GI50,UACC-62 melanoma,2.57 µM
same,TGI,UACC-62 melanoma,9.19 µM
same,GI50,SF-295 CNS,2.13 µM
same,TGI,SF-295 CNS,13 µM
same,GI50,CCRF-CEM leukemia,1.38 µM
same,TGI,CCRF-CEM leukemia,5.42 µM
same,GI50,HOP-62 NSCLC,3.77 µM
same,TGI,HOP-62 NSCLC,12.8 µM
same,GI50,DU-145 prostate,1.92 µM
same,TGI,DU-145 prostate,8.1 µM
same,GI50,CAKI-1 renal,2.56 µM
same,TGI,CAKI-1 renal,7.69 µM
same,GI50,MDA-MB-231 breast,1.83 µM
same,TGI,MDA-MB-231 breast,5.67 µM
same,GI50,RPMI-8226 leukemia,0.943 µM
same,TGI,RPMI-8226 leukemia,2.41 µM
same,GI50,NCI-H522 lung,8.96 µM
same,TGI,NCI-H522 lung,34.6 µM
same,GI50,MDA-MB-435,0.985 µM
same,TGI,MDA-MB-435,2.7 µM
same,GI50,MOLT-4 leukemia,1.8 µM
same,TGI,MOLT-4 leukemia,3.99 µM
same,GI50,NCI-H23 lung,2.82 µM
same,TGI,NCI-H23 lung,12 µM
same,GI50,A549 NSCLC,4.55 µM
same,TGI,A549 NSCLC,20.8 µM
same,GI50,BT-549 breast,3.03 µM
same,TGI,BT-549 breast,8.86 µM
same,GI50,TK-10 renal,1.47 µM
same,TGI,TK-10 renal,7.93 µM
same,GI50,786-0 renal,1.92 µM
same,TGI,786-0 renal,7.74 µM
same,GI50,SNB-75 CNS,2.88 µM
same,TGI,SNB-75 CNS,14.4 µM
same,GI50,HCT-116 colon,2.08 µM
same,TGI,HCT-116 colon,8.62 µM
same,GI50,HS 578T breast,0.142 µM
same,TGI,HS 578T breast,8.09 µM
same,GI50,COLO 205 colon,2.77 µM
same,TGI,COLO 205 colon,15.7 µM
same,GI50,SF-539 CNS,2.07 µM
same,TGI,SF-539 CNS,6.21 µM
same,GI50,SK-MEL-2 melanoma,8.14 µM
same,TGI,SK-MEL-2 melanoma,40.7 µM
same,GI50,SR leukemia,0.571 µM
same,TGI,SR leukemia,2.04 µM
same,GI50,K-562 leukemia,2.1 µM
same,TGI,K-562 leukemia,14.1 µM
